Reference: patent US8835617B2, “Polynucleotides encoding a human TRIM-Cyp fusion polypeptide, compositions thereof, and methods of using same” (priority 2008, dated 2014)

Assays:
HIV-1 [1] = test system: HIV-1
Experimental: Since the objective was to engineer a fully human HIV-1 restriction factor, hCypA was the fused at 10 different positions along the length of hT5α (FIG. 44A).
(§1) 2×10^4 adherent cells/well or 8×10^4 suspension cells/well were plated in 48-well plates (Nunc) for challenge with single-cycle GFP reporter vectors that were titered as indicated. GFP synthesis was assessed by flow cytometry 48 hrs post-infection. For spreading infection, 10^6 Jurkat cells were infected with 1 to 15 ng p24/10^6 cells of HIV-1NL4-3-GFP-IRES-Nef. Cells were split every 3 days, fixed in 0.5% paraformaldehyde/PBS, and assayed for GFP synthesis by flow cytometry. For infection of 10^6 primary CD4^+ T cells or macrophages, 15 ng p24/10^6 cells of a CXCR4- or CCR5-tropic HIV-1NL4-3 stock was used, and infection was monitored by assessing the accumulation of RT activity in the supernatant (Sayah et al., 2004). FACSCalibur, Cellquest Pro (Becton Dickinson), and FlowJo software (Treestar, Inc.) were used to record and analyze fluorescence. 1-5×10^5 events were acquired for analysis. […]
2×10^4 adherent cells/well or 8×10^4 suspension cells/well were plated in 48-well plates (Nunc) for challenge with single-cycle GFP reporter vectors that were titered as indicated. GFP synthesis was assessed by flow cytometry 48 hrs post-infection. […]

HIV-2ROD = HIV-2ROD GFP vector challenge of CRFK cells expressing T5 proteins; assay type: cell-based; conditions: in words
Description: (§2) Most HIV-1 plasmids and vectors have been described previously (Berthoux et al., 2004). pNL4-3 contains a complete infectious HIV-1 provirus. pNL4-3-R5 bears the V3 loop of the CCR5-tropic 92TH014-2 HIV-1 strain (Papkalla et al., 2002). To generate pNL4-3-GFP-IRES-Nef, enhanced green fluorescent protein (eGFP) and the ECMV (encephalomyocarditis virus) IRES (internal ribosome entry site) were inserted upstream of nef pNLΔenvGFP is pNL4-3 with an env-inactivating mutation and eGFP in place of nef. […] For biochemistry, hT5Cyps were cloned into the p3xFLAG-CMV-7.1 expression vector (Sigma) and HIV-1 CA was expressed as a GST-fusion using the EF1α promoter.
as §1, with “For spreading infection, 10^6 Jurkat cells were infected with 1 to 15 ng p24/10^6 cells of HIV-1NL4-3-GFP-IRES-Nef. Cells were split every 3 days, fixed in 0.5% paraformaldehyde/PBS, and assayed for GFP synthesis by flow cytometry.” left out, “fluorescence.” for “fluorescence. 1-5×10^5 events were acquired for analysis.”

SIVMAC251 = SIVMAC251 GFP vector challenge of CRFK cells expressing T5 proteins; assay type: cell-based; conditions: in words
Description: as §2
as §1, with “For spreading infection, 10^6 Jurkat cells were infected with 1 to 15 ng p24/10^6 cells of HIV-1NL4-3-GFP-IRES-Nef. Cells were split every 3 days, fixed in 0.5% paraformaldehyde/PBS, and assayed for GFP synthesis by flow cytometry.” left out, “fluorescence.” for “fluorescence. 1-5×10^5 events were acquired for analysis.”

HIV-1 [2] = conditions: of CD45^+GFP^+ cells
Description: HIV-1 infection spreads from cell to cell at high titer in complex lymphoid tissues with a specific hierarchy of T cell destruction and distinct kinetics in vivo (Douek et al., 2003). […] This mouse model takes advantage of the lack of functional B, T, and NK cells in Rag2^−/−γc^−/− mice and allows for improved engraftment of xenografts as well de novo intrathymic generation of human T cells (Baenziger et al., 2008; Mazurier et al., 1999). Briefly, CD34^+ hematopoietic stem and progenitor cells are enriched from cord blood of healthy donors by MACS and transplanted intrahepatically into irradiated, newborn Rag2^−/−γc^−/− mice (FIG. 63A). 2-4 months post-transplant, reconstitution of peripheral blood is assessed by flow cytometry, and mice with more that 5% hCD45^+ cells in peripheral blood are infected intraperitoneally (i.p.) with HIV-1 (FIG. 63A).
An aliquot of cells was maintained in culture with the subsequent addition of SCF, TPO, and Flt3L, and assessed for GFP-expression 72 hours post-transduction.
huRag2^−/−γc^−/− mice were generated as previously described^1. Briefly, fresh human cord blood was obtained with parent written informed consent from healthy full-term newborns (Department of Gynecology and Obstetrics, Ospedale San Giovanni, Bellinzona). […] Traggiai, E., et al. Development of a human adaptive immune system in cord blood cell-transplanted mice. […]

Substance | HIV-1 restriction activity (HIV-1 [1]; in words, Jurkat T cells (b397 also THP-1 monocytes)) | restriction of HIV-2ROD (HIV-2ROD) | restriction of SIVMAC251 (SIVMAC251) | Post-infection GFP^+ CD3 (HIV-1 [2]) [%] | magnitude of restriction with CypA knockdown (HIV-1 [1]; CypA KD vs Luc KD Jurkat T cells)
hT5Cyp: human TRIM5α fused at serine 322 to human cyclophilin A, SEQ ID NO:12 | activity comparable to AoT5Cyp | blocked comparably | neither AoT5Cyp nor hT5Cyp can restrict this virus | 0 | 
AoT5Cyp: Aotus (owl monkey) TRIM5-cyclophilin A fusion protein [reference compound] |  | blocked comparably | neither AoT5Cyp nor hT5Cyp can restrict this virus |  | Equivalent results
